The values that follow come from patent US10287277B2, “Fumagillol derivatives and polymorphs thereof” (SynDevRx, Inc., priority 2015, dated 2019).

A value given as a limit tells only on which side of the number the result lay.

The test system of data set [1] is SU-DHL-10 (Diffuse Large B-Cell Lymphoma). Briefly: Single agent cell viability assay (CellTiter-Glo), 72 h continuous exposure. The class given is cell-based. As to conditions: Homo sapiens, SU-DHL10, SU-DHL-10 cells. As for the experimental part: (§1) The half-maximal inhibitory concentration(s) (IC50) of Formula I as a single agent against a panel of human hematological tumor cell lines was investigated. All cell lines were grown in their respective proper growth media supplemented with 5-10% FBS and housed in an atmosphere of 5% CO2 at 37° C.
(§2) Cell Viability Assay—72 Hours Continuous Exposure Time
(§3) 1. 0 hr: Cells were plated in growth media in 96-well microtiter plates at a 200 μL volume. Cells were incubated for 24 hours at 37° C. in a humidified incubator.
(§4) 2. 24 hr: The test agent's drug doses were achieved using HP D300 Digital Dispenser. Briefly, the digital dispenser added test agent in a DMSO solvent at precise volumes to media containing wells. Control wells received equivolumes of DMSO that test agents wells received. Following drugging, cells were exposed at the concentrations and dilutions described in Table 20 for 72 hours at 37° C. in a humidified incubator.
(§5) 3. 72 hr: Following 72 hour exposure, 100 μl of a 1:1 mixture of sterile water and CellTiter-Glo® Reagent was added to each well. The plates are incubated for 60 minutes at room temperature. After incubation, luminescence was recorded using a luminometer. The results are shown below in Table 21 and in FIGS. 15A, 15B, 15C and 15D.
(§6) Data is expressed as the percent cell growth of the untreated (vehicle) control calculated from the luminescence signals. The surviving fraction of cells was determined by dividing the mean luminescence values of the test agents by the mean luminescence values of untreated control. The inhibitory concentration value for the test agent(s) and control was estimated using Prism 6 software (GraphPad Software, Inc.) by curve-fitting the data using the non-linear regression analysis.

The next data set concerns BC-1 (B-Cell Lymphoma). The description is as above. The class given is cell-based. The note with it: Homo sapiens, BC1, BC-1 cells. As for the experimental part: as §1, §2, §3, §4, §5, §6
The test system of another data set is U266 (Myeloma). The description is as above. The class given is cell-based. The note with it: Homo sapiens, U-266, U266 cells. Here is the method:
as §1, §2, §3, §4, §5, §6

Data set [2] deals with Jeko-1 (Mantle Cell Lymphoma). The description is as above. As to conditions: Homo sapiens, Jeko-1 cells. The class given is cell-based. Here is the method:
as §1, §2, §3, §4, §5, §6

The nature of data set [3]: Storage stability, 25° C., 60% RH. The class given is physicochemical. As to conditions: for Appearance / Impurity Compound 2 / Impurity Compound 4 / Impurity Compound 5 / Largest individual unknown impurity / Total Impurities / Water Content: 25° C., 60% RH. Here is the method: (§7) As shown below, the compounds can remain >99% pure after being held at 25° C. and 60% relative humidity for six months. The compounds can remain >95% pure after being held at 40° C. and 75% relative humidity for six months.

Data set [4] in a line: Storage stability, 40° C., 75% RH. The class given is physicochemical. As to conditions: for Appearance / Impurity Compound 2 / Impurity Compound 4 / Impurity Compound 5 / Largest individual unknown impurity / Total Impurities / Water Content: 40° C., 75% RH. Here is the method: as §7
Data set [5] is described as follows: Stability of salt forms versus free base (statement in words). The note with it: comparison of free base, hemi-tartrate and benzenesulfonic acid salt.

In the case of `COc1cccc2c1C(=O)c1c(O)c3c(c(O)c1C2=O)C[C@@](O)(C(=O)CO)C[C@@H]3O[C@H]1C[C@H](N)[C@H](O)[C@H](C)O1` [Adriamycin, reference compound], the IC50 worked out at 0.00085 µM in data set [1] and 0.02 µM with BC-1 (B-Cell Lymphoma).

Regarding `CC(C)C[C@H](NC(=O)[C@H](Cc1ccccc1)NC(=O)c1cnccn1)B(O)O` [Bortezomib, reference compound], the IC50 in the data set with U266 (Myeloma) turned out to be 0.0024 µM; in data set [2], 0.4 µM.

Take `CO[C@@H]1[C@H](OC(=O)N[C@H]2CC[C@H](N)CC2)CC[C@]2(CO2)[C@H]1[C@@]1(C)O[C@@H]1CC=C(C)C.O=S(=O)(O)c1ccccc1` [Form II of Formula I, fumagill-6-yl N-(trans-4-aminocyclohexyl)carbamate benzenesulfonic acid salt]: the Appearance entry in data set [3] (0 Months), in data set [3] (1 Month), in data set [3] (2 Months), in data set [3] (3 Months), in data set [3] (6 months) and in data set [4] (0 Months) was “White powder,” in each case. Further, the Appearance entry in data set [4] (1 Month), in data set [4] (2 Months), in data set [4] (3 Months) and in data set [4] (6 months) was “White powder,” throughout. Also, the “Impurity Compound 2” value in data set [3] (0 Months) is listed as below 0.1%; in data set [3] (1 Month), 0.3%; in data set [3] (2 Months) it was 0.4%; in data set [3] (3 Months), 0.5%; in data set [3] (6 months) it was 0.6%; in data set [4] (0 Months) it was below 0.1%. For the same molecule, the “Impurity Compound 2” value in data set [4] (1 Month) is reported as 1.0%; in data set [4] (2 Months) it was 1.4%; in data set [4] (3 Months), 1.6%; in data set [4] (6 months) it was 1.5%. Besides, the “Impurity Compound 4” value in data set [3] (0 Months) was below 0.1%; in data set [3] (2 Months), 0.1%; in data set [3] (3 Months), 0.1%; in data set [3] (6 months) it was 0.1%; in data set [4] (0 Months) it was below 0.1%; in data set [4] (2 Months) it was 0.3%. Further, the “Impurity Compound 4” value in data set [4] (3 Months) was 0.5%; in data set [4] (6 months) it was 1.4%. For the same molecule, the “Impurity Compound 5” value in data set [3] (0 Months), in data set [3] (1 Month), in data set [3] (2 Months), in data set [3] (3 Months), in data set [3] (6 months) and in data set [4] (0 Months) was 0.1% each time. Moreover, the “Impurity Compound 5” value amounted to 0.1% in data set [4] (1 Month), 0.1% in data set [4] (2 Months), 0.2% in data set [4] (3 Months) and 0.5% in data set [4] (6 months). For the same molecule, the “Largest individual unknown impurity” value in data set [3] (0 Months), in data set [3] (1 Month), in data set [3] (2 Months), in data set [3] (3 Months), in data set [3] (6 months) and in data set [4] (0 Months) was below 0.1% throughout. Also, the “Largest individual unknown impurity” value amounted to 0.2% in data set [4] (1 Month), 0.3% in data set [4] (2 Months), 0.4% in data set [4] (3 Months) and 0.3% in data set [4] (6 months). For the same molecule, the “Total Impurities” value in data set [3] (0 Months) is 0.1%; in data set [3] (1 Month), 0.5%; in data set [3] (2 Months), 0.5%; in data set [3] (3 Months) it was 0.7%; in data set [3] (6 months), 0.9%; in data set [4] (0 Months) it was 0.1%. Further, the “Total Impurities” value in data set [4] (1 Month) was 1.5%; in data set [4] (2 Months), 2.4%; in data set [4] (3 Months), 3.1%; in data set [4] (6 months) it was 4.2%. Besides, the “Water Content” value in data set [3] (0 Months) was found to be 0.41%; in data set [3] (1 Month), 0.60%; in data set [3] (2 Months) it was 0.57%; in data set [3] (3 Months), 1.73%; in data set [3] (6 months) it was 1.58%; in data set [4] (0 Months) it was 0.41%. Further, the “Water Content” value in data set [4] (1 Month) is given as 1.54%; in data set [4] (2 Months), 1.19%; in data set [4] (3 Months), 2.57%; in data set [4] (6 months) it was 3.19%. Also, the “purity remaining after storage” value in data set [3] (held at 25° C. and 60% relative humidity for six months) is reported as above 99%; in data set [4] (held at 40° C. and 75% relative humidity for six months) it was above 95%.

On to `COC1C(OC(=O)N[C@H]2CC[C@H](N)CC2)CC[C@]2(CO2)C1C1(C)O[C@@H]1CC=C(C)C` (stereo partly drawn) [Formula I, (1R,4r)-4-(((((3R,4S,5S,6R)-5-methoxy-4-((2R,3R)-2-methyl-3-(3-methylbut-2-en-1-yl)oxiran-2-yl)-1-oxaspiro[2.5]octan-6-yl)oxy)carbonyl)amino)cyclohexan-1-aminium benzenesulfonate], for which the IC50 is 54.6 µM in the data set with U266 (Myeloma), 6.2 µM in data set [1], 20.4 µM in the data set on BC-1 (B-Cell Lymphoma) and 30.7 µM in data set [2].

With `COC1C(OC(=O)N[C@H]2CC[C@H](N)CC2)CCC2(CO2)C1C1(C)OC1CC=C(C)C` (stereo partly drawn) [free base form of Formula I, fumagill-6-yl N-(trans-4-aminocyclohexyl)carbamate], in data set [5], the “stability (in words)” value is “inherently unstable”.
